Test results from PubChem BioAssay (NCI).
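Where inhibition never reached the appropriate level, the endpoint shown equals the highest concentration tested. Otherwise, values were interpolated linearly from a five-concentration, 48-hour dose response in 96-well plates. TGI is the concentration that stops growth completely.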 Where a SMILES comes first, the peptide text is derived from it. The star is where a group is joined. Boc = CC(C)(C)OC(=O)*

Assays:
Assay in all cases: inhibition of tumour cell growth, NCI panel, 48 h
A549 NSCLC = system: A549 NSCLC
ACHN renal = system: ACHN renal
CAKI-1 renal = system: CAKI-1 renal
CCRF-CEM leukemia = system: CCRF-CEM leukemia
COLO 205 colon = system: COLO 205 colon
DU-145 prostate = system: DU-145 prostate
EKVX NSCLC = system: EKVX NSCLC
HCC-2998 colon = system: HCC-2998 colon
HCT-116 colon = system: HCT-116 colon
HCT-15 colon = system: HCT-15 colon
HL-60(TB) leukemia = system: HL-60(TB) leukemia
HOP-62 NSCLC = system: HOP-62 NSCLC
HOP-92 NSCLC = system: HOP-92 NSCLC
HT29 colon = system: HT29 colon
IGROV1 ovarian = system: IGROV1 ovarian
K-562 leukemia = system: K-562 leukemia
LOX IMVI melanoma = system: LOX IMVI melanoma
M14 melanoma = system: M14 melanoma
MALME-3M melanoma = system: MALME-3M melanoma
MCF7 breast = system: MCF7 breast
MDA-MB-231 breast = system: MDA-MB-231 breast
MDA-MB-435 = system: MDA-MB-435
MDA-N = system: MDA-N
MOLT-4 leukemia = system: MOLT-4 leukemia
NCI-H460 lung = system: NCI-H460 lung
NCI-H522 lung = system: NCI-H522 lung
OVCAR-3 ovarian = system: OVCAR-3 ovarian
OVCAR-4 ovarian = system: OVCAR-4 ovarian
OVCAR-8 ovarian = system: OVCAR-8 ovarian
PC-3 prostate = system: PC-3 prostate
RPMI-8226 leukemia = system: RPMI-8226 leukemia
SF-268 CNS = system: SF-268 CNS
SF-295 CNS = system: SF-295 CNS
SK-MEL-28 melanoma = system: SK-MEL-28 melanoma
SK-MEL-5 melanoma = system: SK-MEL-5 melanoma
SK-OV-3 ovarian = system: SK-OV-3 ovarian
SNB-19 CNS = system: SNB-19 CNS
SR leukemia = system: SR leukemia
SW-620 colon = system: SW-620 colon
T-47D breast = system: T-47D breast
TK-10 renal = system: TK-10 renal
UACC-257 melanoma = system: UACC-257 melanoma
UACC-62 melanoma = system: UACC-62 melanoma

Compound `CC(C)(C)OC(=O)NC(Cc1ccccc1)C(=O)N1CCCC1C(N)=O` (stereo not drawn) (Boc-Phe-Pro-NH2; configuration not given here) has a TGI (A549 NSCLC) of over 100 µM, a TGI (ACHN renal) of over 100 µM and a TGI (CAKI-1 renal) of over 100 µM. For the same compound, the TGI (CCRF-CEM leukemia) was over 100 µM, the TGI (COLO 205 colon) was over 100 µM and the TGI (DU-145 prostate) was over 100 µM. It also gave a TGI (EKVX NSCLC) of over 100 µM, a TGI (HCC-2998 colon) of over 100 µM and a TGI (HCT-116 colon) of over 100 µM. For the same compound, the TGI (HCT-15 colon) was over 100 µM, the TGI (HL-60(TB) leukemia) was over 100 µM and the TGI (HOP-62 NSCLC) was over 100 µM. The TGI (HOP-92 NSCLC) was 74 µM, the TGI (HT29 colon) was over 100 µM and the TGI (IGROV1 ovarian) was over 100 µM. For the same compound, the TGI (K-562 leukemia) was over 100 µM, the TGI (LOX IMVI melanoma) was over 100 µM and the TGI (M14 melanoma) was over 100 µM. For the same compound, the TGI (MALME-3M melanoma) was over 100 µM, the TGI (MCF7 breast) was over 100 µM and the TGI (MDA-MB-231 breast) was over 100 µM. The TGI (MDA-MB-435) was over 100 µM, the TGI (MDA-N) was over 100 µM and the TGI (MOLT-4 leukemia) was over 100 µM. The TGI (NCI-H460 lung) was over 100 µM, the TGI (NCI-H522 lung) was over 100 µM and the TGI (OVCAR-3 ovarian) was over 100 µM. It also gave a TGI (OVCAR-4 ovarian) of over 100 µM, a TGI (OVCAR-8 ovarian) of over 100 µM and a TGI (PC-3 prostate) of over 100 µM. For the same compound, the TGI (RPMI-8226 leukemia) was over 100 µM, the TGI (SF-268 CNS) was over 100 µM and the TGI (SF-295 CNS) was over 100 µM. The TGI (SK-MEL-28 melanoma) was over 100 µM, the TGI (SK-MEL-5 melanoma) was over 100 µM and the TGI (SK-OV-3 ovarian) was over 100 µM. The TGI (SNB-19 CNS) was over 100 µM, the TGI (SR leukemia) was over 100 µM and the TGI (SW-620 colon) was over 100 µM. The TGI (T-47D breast) was over 100 µM, the TGI (TK-10 renal) was over 100 µM and the TGI (UACC-257 melanoma) was over 100 µM. The TGI (UACC-62 melanoma) was over 100 µM.
